Columns and labels:
Type in all cases: in vivo
Cyperus microiria = assay: Test for Herbicidal Effect in Flooding Treatment (#1), CYMIC; details: flooding treatment at seeding, dose 2 kg/ha, visual observation on day 21
Procedure, shortened: (§1)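 Flooded soil in cups was seeded 24 h after flooding, then treated with compound in acetone diluted with Tween 80-containing water, dropped onto the water surface at 2 kg/ha. After growth in a glasshouse, growth inhibition was scored visually on day 21 on a 0 (<10%) to 5 (≥90% or complete withering) scale.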

Monochoria vaginalis = assay: Test for Herbicidal Effect in Flooding Treatment (#1), MONVA; details: flooding treatment at seeding, dose 2 kg/ha, visual observation on day 21
Procedure, shortened: as §1

[1] = system: Echinochloa crus-galli (L.) P. Beauv. var. formosensis Ohwi; assay: Test for Herbicidal Effect in Flooding Treatment (#2), ECHDG at 2-2.5 leaf stage; details: flooding treatment at 2-2.5 leaf stage, dose 0.2 kg/ha, visual observation on day 21
Procedure, shortened: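 Scoring is a visual 0–5 scale of growth inhibition (0 below 10%, 5 at 90% or more or full withering), taken 21 days after treatment in a glasshouse. Dose was 0.2 kg/ha, applied as acetone/Tween 80 aqueous solution onto flooded soil once seedlings reached the 2–2.5 leaf stage.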

[2] = system: Echinochloa crus-galli (L.) P. Beauv. var. formosensis Ohwi; assay: Test for Herbicidal Effect in Flooding Treatment (#1), ECHDG; details: flooding treatment at seeding, dose 2 kg/ha, visual observation on day 21
Procedure, shortened: as §1

Scirpus juncoides = assay: Test for Herbicidal Effect in Flooding Treatment (#1), SCIJU; details: flooding treatment at seeding, dose 2 kg/ha, visual observation on day 21
Procedure, shortened: as §1

SMILES	CYMIC #1 herbicidal effect (growth inhibition grade) (Cyperus microiria)	MONVA #1 herbicidal effect (growth inhibition grade) (Monochoria vaginalis)	ECHDG (2-2.5L) #2 herbicidal effect (growth inhibition grade) [1]	ECHDG #1 herbicidal effect (growth inhibition grade) [2]	SCIJU #1 herbicidal effect (growth inhibition grade) (Scirpus juncoides)
COc1ccc(F)c(CS(=O)(=O)c2ncc(Cl)s2)c1 [Compound 1C-69]	5 (Growth inhibition effect is equal to or greater than 90%, or complete withering is achieved)	5 (Growth inhibition effect is equal to or greater than 90%, or complete withering is achieved)	4 (Growth inhibition effect is equal to or greater than 70%, and less than 90%)	5 (Growth inhibition effect is equal to or greater than 90%, or complete withering is achieved)	5 (Growth inhibition effect is equal to or greater than 90%, or complete withering is achieved)
COc1ccc(Cl)c(CS(=O)(=O)c2ncc(Cl)s2)c1 [Compound 1C-70]	5 (Growth inhibition effect is equal to or greater than 90%, or complete withering is achieved)	5 (Growth inhibition effect is equal to or greater than 90%, or complete withering is achieved)	4 (Growth inhibition effect is equal to or greater than 70%, and less than 90%)	5 (Growth inhibition effect is equal to or greater than 90%, or complete withering is achieved)	5 (Growth inhibition effect is equal to or greater than 90%, or complete withering is achieved)
CCOc1cccc(CS(=O)(=O)c2ncc(Cl)s2)c1F [Compound 1C-75]	5 (Growth inhibition effect is equal to or greater than 90%, or complete withering is achieved)	5 (Growth inhibition effect is equal to or greater than 90%, or complete withering is achieved)	4 (Growth inhibition effect is equal to or greater than 70%, and less than 90%)	5 (Growth inhibition effect is equal to or greater than 90%, or complete withering is achieved)	5 (Growth inhibition effect is equal to or greater than 90%, or complete withering is achieved)
CCOc1cc(CS(=O)(=O)c2ncc(Cl)s2)ccc1Cl [Compound 1C-77]	5 (Growth inhibition effect is equal to or greater than 90%, or complete withering is achieved)	5 (Growth inhibition effect is equal to or greater than 90%, or complete withering is achieved)	3 (Growth inhibition effect equal to or greater than 50%, and less than 70%)	5 (Growth inhibition effect is equal to or greater than 90%, or complete withering is achieved)	5 (Growth inhibition effect is equal to or greater than 90%, or complete withering is achieved)
CCOc1cc(Cl)cc(CS(=O)(=O)c2ncc(Cl)s2)c1 [Compound 1C-78]	5 (Growth inhibition effect is equal to or greater than 90%, or complete withering is achieved)	5 (Growth inhibition effect is equal to or greater than 90%, or complete withering is achieved)	5 (Growth inhibition effect is equal to or greater than 90%, or complete withering is achieved)	5 (Growth inhibition effect is equal to or greater than 90%, or complete withering is achieved)	5 (Growth inhibition effect is equal to or greater than 90%, or complete withering is achieved)
CCOc1cc(CS(=O)(=O)c2ncc(Cl)s2)cc(C(F)(F)F)c1 [Compound 1C-79]	5 (Growth inhibition effect is equal to or greater than 90%, or complete withering is achieved)	5 (Growth inhibition effect is equal to or greater than 90%, or complete withering is achieved)	2 (Growth inhibition effect is equal to or greater than 30%, and less than 50%)	5 (Growth inhibition effect is equal to or greater than 90%, or complete withering is achieved)	5 (Growth inhibition effect is equal to or greater than 90%, or complete withering is achieved)
CCOc1c(F)ccc(CS(=O)(=O)c2ncc(Cl)s2)c1F [Compound 1C-81]	5 (Growth inhibition effect is equal to or greater than 90%, or complete withering is achieved)	5 (Growth inhibition effect is equal to or greater than 90%, or complete withering is achieved)	5 (Growth inhibition effect is equal to or greater than 90%, or complete withering is achieved)	5 (Growth inhibition effect is equal to or greater than 90%, or complete withering is achieved)	5 (Growth inhibition effect is equal to or greater than 90%, or complete withering is achieved)
CCOc1ccc(F)c(CS(=O)(=O)c2ncc(Cl)s2)c1F [Compound 1C-82]	5 (Growth inhibition effect is equal to or greater than 90%, or complete withering is achieved)	5 (Growth inhibition effect is equal to or greater than 90%, or complete withering is achieved)	5 (Growth inhibition effect is equal to or greater than 90%, or complete withering is achieved)	5 (Growth inhibition effect is equal to or greater than 90%, or complete withering is achieved)	5 (Growth inhibition effect is equal to or greater than 90%, or complete withering is achieved)
CCOc1cc(CS(=O)(=O)c2ncc(Cl)s2)cc(F)c1F [Compound 1C-83]	5 (Growth inhibition effect is equal to or greater than 90%, or complete withering is achieved)	5 (Growth inhibition effect is equal to or greater than 90%, or complete withering is achieved)	4 (Growth inhibition effect is equal to or greater than 70%, and less than 90%)	5 (Growth inhibition effect is equal to or greater than 90%, or complete withering is achieved)	5 (Growth inhibition effect is equal to or greater than 90%, or complete withering is achieved)
COc1ccc(CS(=O)(=O)c2ncc(Cl)s2)c(F)c1 [Compound 1C-88]	5 (Growth inhibition effect is equal to or greater than 90%, or complete withering is achieved)	5 (Growth inhibition effect is equal to or greater than 90%, or complete withering is achieved)	4 (Growth inhibition effect is equal to or greater than 70%, and less than 90%)	5 (Growth inhibition effect is equal to or greater than 90%, or complete withering is achieved)	5 (Growth inhibition effect is equal to or greater than 90%, or complete withering is achieved)
COc1cc(Cl)c(CS(=O)(=O)c2ncc(Cl)s2)c(Cl)c1 [Compound 1C-91]	5 (Growth inhibition effect is equal to or greater than 90%, or complete withering is achieved)	5 (Growth inhibition effect is equal to or greater than 90%, or complete withering is achieved)	5 (Growth inhibition effect is equal to or greater than 90%, or complete withering is achieved)	5 (Growth inhibition effect is equal to or greater than 90%, or complete withering is achieved)	5 (Growth inhibition effect is equal to or greater than 90%, or complete withering is achieved)
CCOc1ccc(CS(=O)(=O)c2ncc(Cl)s2)c(C)c1 [Compound 1C-93]	5 (Growth inhibition effect is equal to or greater than 90%, or complete withering is achieved)	5 (Growth inhibition effect is equal to or greater than 90%, or complete withering is achieved)	5 (Growth inhibition effect is equal to or greater than 90%, or complete withering is achieved)	5 (Growth inhibition effect is equal to or greater than 90%, or complete withering is achieved)	5 (Growth inhibition effect is equal to or greater than 90%, or complete withering is achieved)

— US20200060276A1, “THIAZOLE COMPOUND AND HERBICIDE” (OAT Agrio Co., Ltd., priority 2017, published 2020)
